From ChEMBL document CHEMBL1123484 (J Med Chem, 1986)

Assays:
[1] = molecular target: T1, Folylpolyglutamate synthase, mitochondrial (Mus musculus, UniProt P48760); test: Compound was tested for its ability to inhibit Folyl-polyglutamate synthase from mouse liver
T1 sequence (P48760 whole entry): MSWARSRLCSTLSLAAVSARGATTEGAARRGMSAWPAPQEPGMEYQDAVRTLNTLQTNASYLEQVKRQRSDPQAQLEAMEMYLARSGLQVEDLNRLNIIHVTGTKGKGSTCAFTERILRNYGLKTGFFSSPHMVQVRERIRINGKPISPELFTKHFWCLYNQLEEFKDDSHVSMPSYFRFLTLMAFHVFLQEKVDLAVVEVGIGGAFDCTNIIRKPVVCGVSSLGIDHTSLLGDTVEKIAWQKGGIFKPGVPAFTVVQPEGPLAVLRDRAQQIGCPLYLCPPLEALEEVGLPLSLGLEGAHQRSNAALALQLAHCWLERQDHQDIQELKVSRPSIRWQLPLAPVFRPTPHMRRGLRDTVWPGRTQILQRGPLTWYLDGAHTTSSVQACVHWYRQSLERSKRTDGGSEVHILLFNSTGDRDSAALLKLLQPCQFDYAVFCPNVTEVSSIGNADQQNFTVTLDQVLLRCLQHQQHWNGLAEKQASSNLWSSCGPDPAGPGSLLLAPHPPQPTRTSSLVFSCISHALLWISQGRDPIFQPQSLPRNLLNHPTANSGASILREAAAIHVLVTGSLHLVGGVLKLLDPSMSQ

L1210 ( R81) = test: Compound was tested for its ability to inhibit growth of L1210/R81 cells; format: functional, cell-based; conditions: Mus musculus
L1210 = test: Compound was tested for its ability to inhibit growth of L1210 mouse leukemia cells; format: functional, cell-based
Dihydrofolate reductase = molecular target: T2, Dihydrofolate reductase (Mus musculus, UniProt P00375); test: biochemical
T2 sequence (P00375 whole entry): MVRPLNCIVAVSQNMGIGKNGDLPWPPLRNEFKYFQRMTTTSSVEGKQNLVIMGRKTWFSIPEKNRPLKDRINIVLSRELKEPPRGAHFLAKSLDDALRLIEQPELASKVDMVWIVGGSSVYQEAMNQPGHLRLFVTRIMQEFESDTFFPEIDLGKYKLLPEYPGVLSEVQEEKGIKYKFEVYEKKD
Description: Compound was tested for its ability to inhibit purified dihydrofolate reductase(DHFR) from L1210/R81 cells

[2] = molecular target: T3, Folylpolyglutamate synthase, mitochondrial (Mus musculus) (UniProt P48760); test: Compound (500 uM folate
T3 sequence (whole entry): T1 sequence (P48760 whole entry)

Row | SMILES | Ki [1] [nM] | IC50 (L1210 ( R81)) [nM] | IC50 (L1210) [nM] | IC50 (Dihydrofolate reductase) [nM] | inhibition [2] [%]
1 | NCCCC(NC(=O)c1ccc(NCc2cnc3nc(N)nc(N)c3n2)cc1)C(=O)O (stereo unspecified) | 150 | 32000 | 1300 |  | 
2 | CN(Cc1cnc2nc(N)nc(N)c2n1)c1ccc(C(=O)N[C@@H](CCC(=O)O)C(=O)O)cc1 [METHOTREXATE] |  | 220000 |  |  | 
3 | CN(Cc1cnc2nc(N)nc(N)c2n1)c1ccc(C(=O)NC(CCCCN)C(=O)O)cc1 (stereo unspecified) |  | 220000 | 400 | 65 | < 10
4 | CN(Cc1cnc2nc(N)nc(N)c2n1)c1ccc(C(=O)NC(CN)C(=O)O)cc1 (stereo unspecified) |  | 405000 | 440 | 180 | < 10
5 | Nc1nc(N)c2nc(CNc3ccc(C(=O)N[C@@H](CCC(=O)O)C(=O)O)cc3)cnc2n1 [AMINOPTERIN] |  | 84000 |  |  | 

Continued by falling IC50 (L1210 ( R81)), values first:

Row | Ki [1] [nM] | IC50 (L1210 ( R81)) [nM] | IC50 (L1210) [nM] | IC50 (Dihydrofolate reductase) [nM] | inhibition [2] [%] | SMILES
6 |  | 290000 | 2420 | 120 | < 10 | CN(Cc1cnc2nc(N)nc(N)c2n1)c1ccc(C(=O)NC(CCN)C(=O)O)cc1 (stereo unspecified)
7 | 20400 | 86000 | 1300 | 160 |  | CN(Cc1cnc2nc(N)nc(N)c2n1)c1ccc(C(=O)NC(CCCN)C(=O)O)cc1 (stereo unspecified)
